According to ChEMBL document CHEMBL6182888, “Design, synthesis, and biological activity study of 6,7-dimethoxy-1,2,3,4-tetrahydroisoquinoline derivatives against multidrug resistance in Eca109/VCR cells” (Eur J Med Chem, 2025):

How the values were obtained:
Eca-109/VCR = assay: Cytotoxicity against human Eca-109/VCR cells assessed as reduction in cell viability at 5.0 uM incubated for 48 hrs by CCK-8 assay relative to control; format: functional
[1] = Reversal fold, ratio of vincristine IC50 to vincristine IC50 in presence of test compound for reversal of drug resistance in human Eca-109/VCR cells at 5 uM incubated for 48 hrs by CCK-8 assay; format: functional

| SMILES | Cell viability (% of control) (Eca-109/VCR) [%] | Ratio IC50 [1] |
| --- | --- | --- |
| C=CCCCCOc1ccc(CC2c3cc(OC)c(OC)cc3CCN2C)cc1OC (centres undefined) | 103.4 | 1.9 |
| CCOCCOCCOc1cc(CC2c3cc(OC)c(OC)cc3CCN2C)ccc1OC (centres undefined) | 103.1 | 2.2 |
| COc1cc2c(cc1OC)C(Cc1ccc(OS(=O)(=O)Cc3ccccc3)c(OC)c1)N(C)CC2 (centres undefined) | 102.6 | 171.6 |
| COc1cc2c(cc1OC)C(Cc1ccc(OS(=O)(=O)c3ccccc3F)c(OC)c1)N(C)CC2 (centres undefined) | 98.2 | 274.3 |
| COc1cc2c(cc1OC)C(Cc1ccc(OC)c(OC(=O)c3ccc4ccccc4c3)c1)N(C)CC2 (centres undefined) | 101.1 | 107.9 |
| COc1cc2c(cc1OC)C(Cc1ccc(OCCC(C)C)c(OC)c1)N(C)CC2 (centres undefined) | 105.5 | 227.1 |
| COc1cc2c(cc1OC)C(Cc1ccc(OC)c(OCC(=O)OC(C)(C)C)c1)N(C)CC2 (centres undefined) | 104.3 | 3.6 |
| CCOCCOCCOc1ccc(CC2c3cc(OC)c(OC)cc3CCN2C)cc1OC (centres undefined) | 103.6 | 8.5 |
| COc1cc2c(cc1OC)C(Cc1ccc(OC)c(OS(=O)(=O)Cc3ccccc3)c1)N(C)CC2 (centres undefined) | 101.5 | 180 |
| COc1cc2c(cc1OC)C(Cc1ccc(OCc3ccccc3)c(OC)c1)N(C)CC2 (centres undefined) | 101.4 | 80.3 |
| COc1cc2c(cc1OC)C(Cc1ccc(OC)c(Oc3ccc([N+](=O)[O-])cc3)c1)N(C)CC2 (centres undefined) | 100.4 | 53.2 |
| CCCCCCCCOc1ccc(CC2c3cc(OC)c(OC)cc3CCN2C)cc1OC (centres undefined) | 94.7 | 82.6 |
| COc1cc2c(cc1OC)C(Cc1ccc(OCC3CC3)c(OC)c1)N(C)CC2 (centres undefined) | 104.2 | 1.5 |
| COc1cc2c(cc1OC)C(Cc1ccc(OS(=O)(=O)c3ccc4ccccc4c3)c(OC)c1)N(C)CC2 (centres undefined) | 84.7 | 362.1 |
| CCCCCCCCOc1cc(CC2c3cc(OC)c(OC)cc3CCN2C)ccc1OC (centres undefined) | 95.3 | 159 |
| COc1cc2c(cc1OC)C(Cc1ccc(OC)c(OS(=O)(=O)c3ccc([N+](=O)[O-])cc3)c1)N(C)CC2 (centres undefined) | 101.5 | 141.5 |
| COc1cc2c(cc1OC)C(Cc1ccc(OS(=O)(=O)c3ccc(C(F)(F)F)cc3)c(OC)c1)N(C)CC2 (centres undefined) | 90.4 | 307.4 |
| COC(=O)c1sccc1S(=O)(=O)Oc1ccc(CC2c3cc(OC)c(OC)cc3CCN2C)cc1OC (centres undefined) | 101.9 | 182.2 |
| COc1cc2c(cc1OC)C(Cc1ccc(OS(=O)(=O)c3ccc([N+](=O)[O-])cc3)c(OC)c1)N(C)CC2 (centres undefined) | 105.6 | 172.2 |
| COc1cc2c(cc1OC)C(Cc1ccc(OCC3CCCCC3)c(OC)c1)N(C)CC2 (centres undefined) | 87.7 | 280 |
| COc1cc2c(cc1OC)C(Cc1ccc(OC)c(OC(=O)C3CCCCC3)c1)N(C)CC2 (centres undefined) | 103.6 | 4.5 |
| COc1cc2c(cc1OC)C(Cc1ccc(OCCc3ccccc3)c(OC)c1)N(C)CC2 (centres undefined) | 104.2 | 1.8 |
